{"source": "patent US7851487B2", "about": "“Use of tetrahydropyridines in the treatment of central nervous system disorders” (The Research Foundation of State University of New York, priority 2006, dated 2010)", "key": {"Serotonin 5HT1A": {"target": "T1, Serotonin 5HT1A (Homo sapiens, UniProt P08908)", "T1 sequence (P08908 1-422)": "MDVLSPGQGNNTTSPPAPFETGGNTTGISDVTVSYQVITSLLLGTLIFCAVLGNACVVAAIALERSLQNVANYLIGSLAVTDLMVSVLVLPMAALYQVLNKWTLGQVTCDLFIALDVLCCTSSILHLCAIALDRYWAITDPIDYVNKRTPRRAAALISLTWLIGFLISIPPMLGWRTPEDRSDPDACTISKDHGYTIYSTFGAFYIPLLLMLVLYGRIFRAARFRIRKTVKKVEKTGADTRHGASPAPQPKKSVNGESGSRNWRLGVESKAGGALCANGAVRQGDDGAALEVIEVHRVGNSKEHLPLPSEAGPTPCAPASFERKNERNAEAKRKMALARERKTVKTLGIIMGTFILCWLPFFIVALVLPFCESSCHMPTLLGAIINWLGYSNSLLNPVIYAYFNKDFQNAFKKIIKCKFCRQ", "assay": "Radioligand binding, Serotonin 5HT1A", "details": "read-out: Percentage Inhibition", "protocol": "(§1) The assays utilized human neuroreceptors and were performed under the experimental parameters set forth in Table 2 using standard techniques.\n(§2) For Table 3, IC50 values were determined by non-linear, least squares regression analysis using Data Analysis Toolbox™ (MDL Information Systems, San Leandro, Calif., USA). Inhibition constants (KI) were calculated using the equation of Cheng and Prusoff (Cheng, Y., et al. Biochem. Pharmacol. 22:3099-3108, 1973) using the observed IC50 of the tested compound, the concentration of radioligand employed in the assay, and the values for the KD of the ligand. The Hill coefficient (nH), defining the slope of the competitive binding curve, was calculated using the Data Analysis Toolbox™. Biochemical assay results are presented as the percent inhibition of specific binding or activity unless indicated otherwise. The experiments summarized in Table 3 utilized human dopamine D1, D2 s, D21, D3, D4.2, D4.4, serotonin 5HT1A, 5HT2A, 5HT2C, 5HT6, 5HT7, dopamine transporter (DAT), serotonin transporter (SERT) and the norepinephrine transporter (NET), as indicated in Table 3."}, "Dopamine D4.2": {"target": "T2, Dopamine D4.2 (Homo sapiens, UniProt P21917, DEL265-296)", "T2 construct": "host or cells: CHO-K1 cells", "T2 sequence (P21917 with tags, fused parts or gaps DEL265-296)": "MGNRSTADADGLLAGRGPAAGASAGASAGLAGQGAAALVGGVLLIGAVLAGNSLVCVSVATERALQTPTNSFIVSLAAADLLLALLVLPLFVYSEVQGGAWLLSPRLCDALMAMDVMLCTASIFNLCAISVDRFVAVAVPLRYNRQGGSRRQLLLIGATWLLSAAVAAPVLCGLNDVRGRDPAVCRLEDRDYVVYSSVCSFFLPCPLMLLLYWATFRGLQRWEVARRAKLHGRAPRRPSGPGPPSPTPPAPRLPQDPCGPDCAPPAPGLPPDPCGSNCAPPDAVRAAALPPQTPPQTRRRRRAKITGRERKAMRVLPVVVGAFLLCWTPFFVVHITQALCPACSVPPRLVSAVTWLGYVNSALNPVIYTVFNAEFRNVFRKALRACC", "assay": "Radioligand binding, Dopamine D4.2 ([3H]Spiperone)", "protocol": "as §1, §2"}, "ckr mouse": {"test_system": "ckr mouse", "assay": "Motor activity in chakragati (ckr) mice", "type": "in vivo", "details": "10 mg/kg intraperitoneal, 20 minutes after injection, monitored 15 minutes", "protocol": "The mouse also presents lateral ventricular enlargement, which may mirror neuropathological observations in shizophrenia. […] We have further validated this model by testing risperidone, clozapine, haloperidol and pimozide in the ckr mouse. The behavioral output was assayed by measuring the rate of hyperactivity and circling after administration.\nA stock solution of compound 2 was dissolved in DMSO, and then diluted to 10 mg/10 ml with distilled water such that the final concentration of DMSO was 0.5%. Each animal received 10 mg/kg of the test drug in a volume of 0.1 ml per 10 g. Additional drugs were tested in parallel in a similar manner.\nTwenty ckr mice (male and female, 3 months old) were randomly assigned to receive the test drug (compound 2) or 0.5% DMSO vehicle. The drug was tested in 5 mice. Each treatment was separated by a minimum washout period of 3 days. On the day of testing, mice were brought into the behavioral test room and allowed to acclimatize for at least 1 hour. They then received intraperitoneal injections of the 0.1 ml/10 g (10 mg/kg) of the test drug solution or vehicle. They were returned to their cage and 20 minutes later they were placed in a 190 mm diameter, 300 mm deep circular recording chamber. […] The mice were monitored with an overhead video camera for 15 minutes. […] The total distance moved, the velocity of movement, and the time spent moving were calculated. […]"}, "Dopamine D1": {"target": "Dopamine D1 (Homo sapiens, UniProt P21728)", "sequence (P21728 whole entry)": "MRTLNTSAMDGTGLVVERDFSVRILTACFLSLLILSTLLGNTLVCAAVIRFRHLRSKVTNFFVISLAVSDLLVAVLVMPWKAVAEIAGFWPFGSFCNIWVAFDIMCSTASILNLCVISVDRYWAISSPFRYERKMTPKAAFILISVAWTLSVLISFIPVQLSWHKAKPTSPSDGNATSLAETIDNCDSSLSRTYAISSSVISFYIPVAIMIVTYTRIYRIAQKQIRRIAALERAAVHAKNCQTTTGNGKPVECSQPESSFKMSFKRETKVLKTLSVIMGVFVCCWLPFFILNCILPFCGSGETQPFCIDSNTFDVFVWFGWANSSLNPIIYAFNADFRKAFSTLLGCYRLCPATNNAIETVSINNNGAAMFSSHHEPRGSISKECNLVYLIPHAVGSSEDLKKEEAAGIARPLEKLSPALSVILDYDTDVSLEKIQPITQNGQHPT", "assay": "Radioligand binding, Dopamine D1", "details": "Dopamine D1, 10 μM; read-out: Percentage Inhibition", "protocol": "as §1, §2"}, "Serotonin 5HT2A": {"target": "T3, Serotonin 5HT2A (Homo sapiens, UniProt P28223)", "T3 construct": "host or cells: CHO-K1 cells", "T3 sequence (P28223 whole entry)": "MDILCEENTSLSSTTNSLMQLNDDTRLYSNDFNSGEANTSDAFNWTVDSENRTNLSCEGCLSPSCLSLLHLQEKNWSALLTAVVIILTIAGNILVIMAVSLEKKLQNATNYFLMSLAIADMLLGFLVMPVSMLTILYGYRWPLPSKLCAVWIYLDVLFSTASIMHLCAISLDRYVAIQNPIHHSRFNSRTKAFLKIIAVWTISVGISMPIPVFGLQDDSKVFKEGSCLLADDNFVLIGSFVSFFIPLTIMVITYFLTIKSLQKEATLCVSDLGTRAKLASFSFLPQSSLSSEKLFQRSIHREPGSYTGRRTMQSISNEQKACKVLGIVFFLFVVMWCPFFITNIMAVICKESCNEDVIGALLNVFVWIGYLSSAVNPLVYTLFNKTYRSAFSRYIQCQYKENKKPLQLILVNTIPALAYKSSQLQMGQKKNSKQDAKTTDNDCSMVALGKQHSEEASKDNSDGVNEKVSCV", "assay": "Radioligand binding, Serotonin 5HT2A ([3H]Ketanserin)", "protocol": "as §1, §2"}, "Serotonin 5HT7": {"target": "T4, Serotonin 5HT7 (Homo sapiens, UniProt P34969)", "T4 construct": "host or cells: CHO cells", "T4 sequence (P34969 whole entry)": "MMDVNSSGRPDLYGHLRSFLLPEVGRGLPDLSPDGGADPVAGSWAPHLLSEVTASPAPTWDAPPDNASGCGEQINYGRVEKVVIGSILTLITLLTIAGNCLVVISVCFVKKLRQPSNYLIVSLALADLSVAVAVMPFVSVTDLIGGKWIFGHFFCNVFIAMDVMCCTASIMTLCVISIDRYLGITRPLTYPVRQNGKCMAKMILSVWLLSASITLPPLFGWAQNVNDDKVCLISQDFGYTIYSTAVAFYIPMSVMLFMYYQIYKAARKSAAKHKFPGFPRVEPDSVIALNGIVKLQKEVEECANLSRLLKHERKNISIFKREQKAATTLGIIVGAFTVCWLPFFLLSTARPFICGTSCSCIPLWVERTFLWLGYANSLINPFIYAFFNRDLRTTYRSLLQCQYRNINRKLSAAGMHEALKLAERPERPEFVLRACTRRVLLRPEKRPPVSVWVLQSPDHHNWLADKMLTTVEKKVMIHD", "assay": "Radioligand binding, Serotonin 5HT7 ([3H]LSD)", "protocol": "as §1, §2"}, "Dopamine D2s": {"target": "T5, Dopamine D2s (Homo sapiens, UniProt P14416)", "T5 construct": "host or cells: CHO cells", "T5 sequence (P14416 1-414 isoform P14416-2)": "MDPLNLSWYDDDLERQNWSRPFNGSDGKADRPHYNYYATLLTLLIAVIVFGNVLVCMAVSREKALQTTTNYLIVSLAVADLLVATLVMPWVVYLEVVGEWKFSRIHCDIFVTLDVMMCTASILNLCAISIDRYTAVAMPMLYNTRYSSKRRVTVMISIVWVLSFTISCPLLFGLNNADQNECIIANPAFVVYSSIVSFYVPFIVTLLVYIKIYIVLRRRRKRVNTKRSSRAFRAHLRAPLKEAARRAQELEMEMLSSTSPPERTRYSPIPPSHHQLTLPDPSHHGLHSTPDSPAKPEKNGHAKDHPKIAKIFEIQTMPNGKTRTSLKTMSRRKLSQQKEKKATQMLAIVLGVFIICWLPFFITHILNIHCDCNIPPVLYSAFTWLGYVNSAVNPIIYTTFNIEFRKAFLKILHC", "assay": "Radioligand binding, Dopamine D2S ([3H]Spiperone)", "protocol": "as §1, §2"}}}
{"compound": "COC(=O)[C@@H](c1ccc(-c2ccccc2)cc1)[C@H]1C=CCCN1", "note": "[Compound 2]", "values": [{"measurement": "inhibition at 10 µM", "setting": "Serotonin 5HT1A", "result": 13, "unit": "%"}, {"measurement": "IC50", "setting": "Dopamine D4.2", "result": 50.5, "unit": "µM"}, {"measurement": "Ki", "setting": "Dopamine D4.2", "result": 19.7, "unit": "µM"}, {"measurement": "nH", "setting": "Dopamine D4.2; Dopamine D4.2, Hill coefficient", "result": 1.76}, {"measurement": "Percentage Inhibition", "setting": "Dopamine D4.2; Dopamine D4.2, concentration 100 (unit not given)", "result": 79, "unit": "%"}, {"measurement": "time spent moving", "setting": "ckr mouse", "result": "significantly decreased the time spent moving"}, {"measurement": "velocity of movement", "setting": "ckr mouse", "result": "trend towards decreased velocity"}, {"measurement": "inhibition at 10 µM", "setting": "Dopamine D1", "result": 17, "unit": "%"}, {"measurement": "IC50", "setting": "Serotonin 5HT2A", "result": 0.797, "unit": "µM"}, {"measurement": "Ki", "setting": "Serotonin 5HT2A", "result": 0.228, "unit": "µM"}, {"measurement": "inhibition at 1 µM", "setting": "Serotonin 5HT2A; Serotonin 5HT2A, 1 μM, read-out: Percentage Inhibition", "result": 61, "unit": "%"}, {"measurement": "inhibition at 10 µM", "setting": "Serotonin 5HT2A; Serotonin 5HT2A, 10 μM, read-out: Percentage Inhibition", "result": 94, "unit": "%"}, {"measurement": "nH", "setting": "Serotonin 5HT2A; Serotonin 5HT2A, Hill coefficient", "result": 1.02}, {"measurement": "IC50", "setting": "Serotonin 5HT7", "result": 25.8, "unit": "µM"}, {"measurement": "Ki", "setting": "Serotonin 5HT7", "result": 14.8, "unit": "µM"}, {"measurement": "inhibition at 30 µM", "setting": "Serotonin 5HT7; Serotonin 5HT7, 30 μM, read-out: Percentage Inhibition", "result": 53, "unit": "%"}, {"measurement": "nH", "setting": "Serotonin 5HT7; Serotonin 5HT7, Hill coefficient", "result": 0.774}, {"measurement": "IC50", "setting": "Dopamine D2s", "result": 51.8, "unit": "µM"}, {"measurement": "Ki", "setting": "Dopamine D2s", "result": 18.7, "unit": "µM"}, {"measurement": "inhibition at 10 µM", "setting": "Dopamine D2s; Dopamine D2s, 10 μM, read-out: Percentage Inhibition", "result": 26, "unit": "%"}, {"measurement": "inhibition at 100 µM", "setting": "Dopamine D2s; Dopamine D2s, 100 μM, read-out: Percentage Inhibition", "result": 62, "unit": "%"}, {"measurement": "nH", "setting": "Dopamine D2s; Dopamine D2s, Hill coefficient", "result": 0.788}]}
